Reference: patent publication US20030027819A1, “Beta-sheet mimetics and methods relating to the use thereof” (Molecumetics Ltd., priority 1996, published 2003)

Target: thrombin (Bos taurus, UniProt P00735)
Test: Thrombin inhibition by solid phase compounds of Tables 11-15
Assay type: biochemical
Set-up: 100 μl of 10 μM thrombin solution
Settings: mixtures of diastereomers; read-out: Ki as thrombin inhibitors (mark at Cpd. No.)
Experimental: Following extensive washing with DMF, the resin was treated with the acid fluoride of N-Fmoc-4-aminomethylbenzoic acid, or (81), or (86) and Hunigs' base in DMF until the Kaiser test was negative. Alternatively, the Fmoc-protected thiazole-(75) or imidazole-based (77) linkers were coupled to the resin using BOP, HOBt and DIEA. In some instances Fmoc-Leu or another amino acid was attached to the resin prior to the thiazole-(75) or imidazole-based (77) linkers via the same methodology. […] Following washing with DMF a dienoic acid was coupled to the resin-bound linkers using PyBOP, HOBt and Hunigs' base in DMF until the result of a Kaiser test was negative. The cycloaddition was performed by pretreatment of a solution of a pyrazolidinedione (not shown) or urazole in DMF with a solution of [bis(trifluoroacetoxy)iodo]benzene in DMF. […] The resin was then washed with DMF and CH2Cl2. Oxidation to the ketoamide was effected by treatment of the resin with a solution of Dess-Martin periodinane in DMSO for 60 min. […] The supernatant was collected and the resin was washed with additional TFA. The combined filtrates were concentrated in vacuo. The residue was precipitated with diethyl ether and the ether was decanted. The resulting solid was reconstituted in 1:1 CH3CN:H2O and lyophilized. […] The compounds were assayed for inhibition of coagulation enzymes as mixtures of diastereomers.

SMILES	Ki [nM]
CC1=CC(C(=O)NCC2CCC(C(=N)N)CC2)n2c(=O)n(CC(c3ccccc3)c3ccccc3)c(=O)n2C1 (centres unmarked) [Structure 221-18]	< 10
CC1=CC(C(=O)NC(CCCCN)C(=O)C(=O)NCCc2ccc(C(N)=O)cc2)n2c(=O)n(C(c3ccccc3)c3ccccc3)c(=O)n2C1 (centres unmarked) [Structure 138]	< 10
NCCCCC(NC(=O)C1C=C2CCCCC2n2c(=O)n(Cc3cc(F)ccc3F)c(=O)n21)C(=O)C(=O)NCCc1ccc(C(N)=O)cc1 (centres unmarked) [Structure 120]	< 10
CC1=CC(C(=O)NC(CCCCN)C(=O)C(=O)NCCc2ccc(C(N)=O)cc2)n2c(=O)n(Cc3cccc4ccccc34)c(=O)n2C1c1ccccc1 (centres unmarked) [Structure 125]	< 10
CC1=CC(C(=O)NC(CCCNC(=N)N)C(=O)c2nc3ccccc3s2)n2c(=O)n(Cc3ccccc3)c(=O)n2C1 (centres unmarked) [Structure 224]	< 10
CC1=CC(C(=O)NC(CCCCN)C(=O)C(=O)NCCc2ccc(C(N)=O)cc2)N2C(=O)C(Cc3ccccc3)(Cc3ccccc3)C(=O)N2C1 (centres unmarked) [Structure 187]	< 10
CC1=CC(C(=O)NC(CCCNC(=N)N)C(=O)c2nc(C(N)=O)c[nH]2)n2c(=O)n(CC(c3ccccc3)c3ccccc3)c(=O)n2C1 (centres unmarked) [Structure 201]	< 10
NCCCCC(NC(=O)C1C=C2CCCCC2n2c(=O)n(Cc3cc(F)ccc3F)c(=O)n21)C(=O)C(=O)NCCCc1ccc(C(N)=O)cc1 (centres unmarked) [Structure 226]	< 10
CC1=CC(C(=O)NC(CCCNC(=N)N)C(=O)c2nc(C(N)=O)cs2)n2c(=O)n(CC(c3ccccc3)c3ccccc3)c(=O)n2C1 (centres unmarked) [Structure 198]	< 10
CCC=CCCC1C=CC(C(=O)NC(CCCCN)C(=O)C(=O)NCCc2ccc(C(N)=O)cc2)n2c(=O)n(Cc3cc(F)ccc3F)c(=O)n21 (mixture of isomers) [Structure 103]	< 10
CC1=CC(C(=O)NC(CCCCN)C(=O)C(=O)NCCc2ccc(C(N)=O)cc2)n2c(=O)n(Cc3cc(F)ccc3F)c(=O)n2C1 (centres unmarked) [Structure 222]	< 10
CC1=CC(C(=O)NC(CCCCN)C(=O)C(=O)NCc2ccc(C(=O)NCCc3ccccc3)cc2)n2c(=O)n(Cc3cc(F)ccc3F)c(=O)n2C1 (centres unmarked) [Structure 102]	< 10
CC1=CC(C(=O)NC(CCCCN)C(=O)C(=O)NCCc2ccc(C(N)=O)cc2)n2c(=O)n(CC(F)(F)F)c(=O)n2C1 (centres unmarked) [Structure 145]	< 10
NCCCCC(NC(=O)C1C=C2CCCCC2n2c(=O)n(CCc3cccs3)c(=O)n21)C(=O)C(=O)NCCc1ccc(C(N)=O)cc1 (centres unmarked) [Structure 119]	< 10
CC1=CC(C(=O)NC(CCCCN)C(=O)C(=O)NCCc2ccc(C(N)=O)cc2)n2c(=O)n(Cc3cc(F)ccc3F)c(=O)n2C1 (centres unmarked) [Structure 100]	< 10
CC1=CC(C(=O)NC(CCCNC(=N)N)C(=O)c2nc3ccccc3s2)n2c(=O)n(Cc3ccccc3)c(=O)n2C1 (centres unmarked) [Structure 211]	< 10
CC(C)CC1C=CC(C(=O)NC(CCCCN)C(=O)C(=O)NCc2ccc(C(N)=O)cc2)n2c(=O)n(C(c3ccccc3)c3ccccc3)c(=O)n21 (centres unmarked) [Structure 108]	< 10
CC1=CC(C(=O)NC(CCCCN)C(=O)C(=O)NCCc2ccc(C(N)=O)cc2)n2c(=O)n(Cc3ccc(C(F)(F)F)c(F)c3)c(=O)n2C1 (centres unmarked) [Structure 137]	< 10
CC1=CC(C(=O)NC(CCCCN)C(=O)C(=O)NCc2ccc(C(N)=O)cc2)N2C(=O)C(N)(Cc3ccccc3)C(=O)N2C1 (centres unmarked) [Structure 189]	< 10
CC1=CC(C(=O)NC(CCCCN)C(=O)C(=O)NCc2ccc(C(=O)NCCc3ccccc3)cc2)n2c(=O)n(Cc3cc(F)ccc3F)c(=O)n2C1 (centres unmarked) [Structure 223]	< 10
NCCCCC(NC(=O)C1C=C2CCCCC2n2c(=O)n(Cc3cc(F)ccc3F)c(=O)n21)C(=O)C(=O)NCCc1ccc(C(N)=O)cc1 (centres unmarked) [Structure 101]	< 10
CC1=CC(C(=O)NC(CCCCN)C(=O)C(=O)NCCc2ccc(C(N)=O)cc2)n2c(=O)n(C(Cc3ccccc3)c3ccccc3)c(=O)n2C1 (centres unmarked) [Structure 136]	< 10
CC1=CC(C(=O)NC(CCCNC(=N)N)C(=O)c2nc3ccccc3s2)n2c(=O)n(CC(c3ccccc3)c3ccccc3)c(=O)n2C1 (centres unmarked) [Structure 215]	< 10
CC1=CC(C(=O)NCC2CCC(N)CC2)n2c(=O)n(CCS(=O)(=O)c3ccccc3)c(=O)n2C1 (centres unmarked) [Structure 221-5]	< 10
CC1=CC(C(=O)NC(CCCCN)C(=O)C(=O)NCCc2ccc(C(N)=O)cc2)n2c(=O)n(Cc3cc(F)ccc3F)c(=O)n2C1c1ccccc1 (centres unmarked) [Structure 122]	< 10
CC1C=CC(C(=O)NC(CCCCN)C(=O)C(=O)NCc2ccc(C(N)=O)cc2)n2c(=O)n(CCc3cccs3)c(=O)n21 (centres unmarked) [Structure 146]	< 10

Now from value to compound:

Ki [nM]	SMILES
< 10	CC(C)CC1C=CC(C(=O)NC(CCCCN)C(=O)C(=O)NCCc2ccc(C(N)=O)cc2)n2c(=O)n(C(c3ccccc3)c3ccccc3)c(=O)n21 (centres unmarked) [Structure 118]
< 10	CC(CC1C=CC(C(=O)NC(CCCCN)C(=O)C(=O)NCCc2ccc(C(N)=O)cc2)n2c(=O)n(CC(c3ccccc3)c3ccccc3)c(=O)n21)CC(C)(C)C (centres unmarked) [Structure 130]
< 10	CC(C)(C)CC1C=CC(C(=O)NC(CCCCN)C(=O)C(=O)NCCc2ccc(C(N)=O)cc2)n2c(=O)n(Cc3ccccc3)c(=O)n21 (centres unmarked) [Structure 140]
< 10	CC(C)(C)CC1C=CC(C(=O)NC(CCCCN)C(=O)C(=O)NCCc2ccc(C(N)=O)cc2)n2c(=O)n(C(c3ccccc3)c3ccccc3)c(=O)n21 (centres unmarked) [Structure 141]
< 10	CCC=CCCC1C=CC(C(=O)NC(CCCCN)C(=O)C(=O)NCCc2ccc(C(N)=O)cc2)n2c(=O)n(C(Cc3ccccc3)c3ccccc3)c(=O)n21 (mixture of isomers) [Structure 105]
< 10	CCC=CCCC1C=CC(C(=O)NC(CCCCN)C(=O)C(=O)NCCc2ccc(C(N)=O)cc2)n2c(=O)n(Cc3ccccc3)c(=O)n21 (mixture of isomers) [Structure 107]
< 10	CC(CC1C=CC(C(=O)NC(CCCCN)C(=O)C(=O)NCCc2ccc(C(N)=O)cc2)n2c(=O)n(Cc3ccc(C(F)(F)F)cc3)c(=O)n21)CC(C)(C)C (centres unmarked) [Structure 133]
< 10	CC(CC1C=CC(C(=O)NC(CCCCN)C(=O)C(=O)NCCc2ccc(C(N)=O)cc2)n2c(=O)n(Cc3ccccc3)c(=O)n21)CC(C)(C)C (centres unmarked) [Structure 132]
< 10	CC(C)CCn1c(=O)n2n(c1=O)C(C(=O)NC(CCCCN)C(=O)C(=O)NCCc1ccc(C(N)=O)cc1)C=CC2CC(C)CC(C)(C)C (centres unmarked) [Structure 126]
< 10	CC(C)CC1C=CC(C(=O)NC(CCCCN)C(=O)C(=O)NCCc2ccc(C(N)=O)cc2)n2c(=O)n(CC(C)c3ccccc3)c(=O)n21 (centres unmarked) [Structure 111]
< 10	CC(CC1C=CC(C(=O)NC(CCCCN)C(=O)C(=O)NCCc2ccc(C(N)=O)cc2)n2c(=O)n(-c3ccc(C(C)(C)C)cc3)c(=O)n21)CC(C)(C)C (centres unmarked) [Structure 128]
< 10	CC(C)CC1C=CC(C(=O)NC(CCCCN)C(=O)C(=O)NCc2ccc(C(N)=O)cc2)n2c(=O)n(Cc3cccc4ccccc34)c(=O)n21 (centres unmarked) [Structure 109]
< 10	CC(C)(C)CC1C=CC(C(=O)NC(CCCCN)C(=O)C(=O)NCCc2ccc(C(N)=O)cc2)n2c(=O)n(Cc3cc(F)ccc3F)c(=O)n21 (centres unmarked) [Structure 225]
< 10	CC(C)(C)CC1C=CC(C(=O)NC(CCCCN)C(=O)C(=O)NCCc2ccc(C(N)=O)cc2)n2c(=O)n(C(Cc3ccccc3)c3ccccc3)c(=O)n21 (centres unmarked) [Structure 144]
< 10	CC(C)(C)CC1C=CC(C(=O)NC(CCCCN)C(=O)C(=O)NCCc2ccc(C(N)=O)cc2)n2c(=O)n(CC(c3ccccc3)c3ccccc3)c(=O)n21 (centres unmarked) [Structure 143]
< 10	CCC=CCCC1C=CC(C(=O)NC(CCCCN)C(=O)C(=O)NCCc2ccc(C(N)=O)cc2)n2c(=O)n(Cc3ccc(C(F)(F)F)c(F)c3)c(=O)n21 (mixture of isomers) [Structure 104]
< 10	CC(C)CC1C=CC(C(=O)NC(CCCCN)C(=O)C(=O)NCCc2ccc(C(N)=O)cc2)n2c(=O)n(CCc3cccs3)c(=O)n21 (centres unmarked) [Structure 115]
< 10	CC(C)CC1C=CC(C(=O)NC(CCCCN)C(=O)C(=O)NCCc2ccc(C(N)=O)cc2)n2c(=O)n(Cc3ccccc3)c(=O)n21 (centres unmarked) [Structure 112]
< 10	CC(CC1C=CC(C(=O)NC(CCCCN)C(=O)C(=O)NCCc2ccc(C(N)=O)cc2)n2c(=O)n(C(Cc3ccccc3)c3ccccc3)c(=O)n21)CC(C)(C)C (centres unmarked) [Structure 129]
< 10	CC(C)CC1C=CC(C(=O)NC(CCCCN)C(=O)C(=O)NCCc2ccc(C(N)=O)cc2)n2c(=O)n(Cc3cccc4ccccc34)c(=O)n21 (centres unmarked) [Structure 117]
< 10	CC(C)CC1C=CC(C(=O)NC(CCCCN)C(=O)C(=O)NCc2ccc(C(N)=O)cc2)n2c(=O)n(Cc3cccs3)c(=O)n21 (centres unmarked) [Structure 110]
< 10	CC(C)(C)CC1C=CC(C(=O)NC(CCCCN)C(=O)C(=O)NCCc2ccc(C(N)=O)cc2)n2c(=O)n(CCc3ccccc3)c(=O)n21 (centres unmarked) [Structure 142]
< 10	CC(CC1C=CC(C(=O)NC(CCCCN)C(=O)C(=O)NCCc2ccc(C(N)=O)cc2)n2c(=O)n(Cc3cc(F)ccc3F)c(=O)n21)CC(C)(C)C (centres unmarked) [Structure 135]
< 10	COc1ccccc1-n1c(=O)n2n(c1=O)C(C(=O)NC(CCCCN)C(=O)C(=O)NCCc1ccc(C(N)=O)cc1)C=CC2CC(C)CC(C)(C)C (centres unmarked) [Structure 127]
